Target: T1, Fructose-1,6-bisphosphatase 1 (Homo sapiens, UniProt P09467)
T1 sequence (P09467 whole entry): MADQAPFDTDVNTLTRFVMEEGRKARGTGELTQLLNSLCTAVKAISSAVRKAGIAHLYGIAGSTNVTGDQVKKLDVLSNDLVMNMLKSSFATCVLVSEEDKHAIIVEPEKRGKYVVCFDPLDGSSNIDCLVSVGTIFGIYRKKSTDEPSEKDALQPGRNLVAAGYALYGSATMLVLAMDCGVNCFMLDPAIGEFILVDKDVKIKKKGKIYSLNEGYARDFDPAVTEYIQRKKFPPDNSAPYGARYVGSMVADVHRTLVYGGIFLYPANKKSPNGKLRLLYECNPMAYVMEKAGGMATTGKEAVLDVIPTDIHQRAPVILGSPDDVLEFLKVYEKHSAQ
Assay: Inhibition of human liver FBPase expressed in Escherichia coli by spectrophotometry

IC50: 1.4 µM
Compound: Nc1ncnc2c1nc(-c1ccc(P(=O)(O)O)o1)n2CCC1CCCCC1 [5-(6-amino-9-(2-cyclohexylethyl)-9H-purin-8-yl)furan-2-ylphosphonic acid]
